Measured values published in ChEMBL document CHEMBL5465560, “Selectivity Literature for EUbOPEN Chemogenomic Library” (2024).

Assays:
[1] = biological target: Tyrosine-protein kinase JAK2 (Homo sapiens, UniProt O60674); experiment: Selectivity interaction (KinomeScan (DiscoverX)) EUB0000655a JAK2; details: at 10 µM
[2] = biological target: Mitogen-activated protein kinase 11 (Homo sapiens) (UniProt Q15759); experiment: Selectivity interaction (KinomeScan (DiscoverX)) EUB0001079a MAPK11; details: at 1 µM
Chain of Mitogen-activated protein kinase 11 (Homo sapiens) (Q15759 whole entry): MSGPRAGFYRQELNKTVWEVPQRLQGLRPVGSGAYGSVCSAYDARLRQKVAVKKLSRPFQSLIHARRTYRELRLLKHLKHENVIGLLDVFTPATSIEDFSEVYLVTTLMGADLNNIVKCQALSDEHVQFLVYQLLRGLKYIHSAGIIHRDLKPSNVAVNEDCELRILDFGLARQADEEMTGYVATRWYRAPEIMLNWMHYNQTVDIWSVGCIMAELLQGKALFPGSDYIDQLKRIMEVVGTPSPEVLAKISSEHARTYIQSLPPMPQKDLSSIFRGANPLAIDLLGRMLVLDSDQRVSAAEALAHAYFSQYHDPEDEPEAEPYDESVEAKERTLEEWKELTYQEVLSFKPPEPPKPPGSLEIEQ

[3] = biological target: Phosphatidylinositol 4-phosphate 5-kinase type-1 alpha (Homo sapiens) (UniProt Q99755); experiment: Selectivity interaction (KinomeScan (DiscoverX)) EUB0001079a PIP5K1A; details: at 1 µM
Chain of Phosphatidylinositol 4-phosphate 5-kinase type-1 alpha (Homo sapiens) (Q99755 whole entry): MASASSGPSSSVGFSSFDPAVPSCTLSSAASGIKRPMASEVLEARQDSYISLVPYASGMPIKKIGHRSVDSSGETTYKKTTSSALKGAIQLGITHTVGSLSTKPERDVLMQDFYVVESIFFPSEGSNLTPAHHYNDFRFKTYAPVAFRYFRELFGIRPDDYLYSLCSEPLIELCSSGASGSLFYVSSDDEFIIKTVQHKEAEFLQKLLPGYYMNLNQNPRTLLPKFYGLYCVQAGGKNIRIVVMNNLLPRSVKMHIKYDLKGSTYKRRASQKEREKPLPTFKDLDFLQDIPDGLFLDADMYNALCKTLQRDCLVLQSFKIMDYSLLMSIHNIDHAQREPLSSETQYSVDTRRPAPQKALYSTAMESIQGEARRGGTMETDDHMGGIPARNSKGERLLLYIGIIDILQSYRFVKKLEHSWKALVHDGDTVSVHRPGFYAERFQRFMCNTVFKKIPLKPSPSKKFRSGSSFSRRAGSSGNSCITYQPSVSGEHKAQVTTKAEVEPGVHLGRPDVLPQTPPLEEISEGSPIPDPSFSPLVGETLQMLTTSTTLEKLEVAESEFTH

[4] = biological target: T1, Mitogen-activated protein kinase kinase kinase kinase 3 (Homo sapiens) (UniProt Q8IVH8); experiment: Selectivity interaction (KinomeScan (DiscoverX)) EUB0000607a MAP4K3; details: at 10 µM
T1 sequence (whole entry): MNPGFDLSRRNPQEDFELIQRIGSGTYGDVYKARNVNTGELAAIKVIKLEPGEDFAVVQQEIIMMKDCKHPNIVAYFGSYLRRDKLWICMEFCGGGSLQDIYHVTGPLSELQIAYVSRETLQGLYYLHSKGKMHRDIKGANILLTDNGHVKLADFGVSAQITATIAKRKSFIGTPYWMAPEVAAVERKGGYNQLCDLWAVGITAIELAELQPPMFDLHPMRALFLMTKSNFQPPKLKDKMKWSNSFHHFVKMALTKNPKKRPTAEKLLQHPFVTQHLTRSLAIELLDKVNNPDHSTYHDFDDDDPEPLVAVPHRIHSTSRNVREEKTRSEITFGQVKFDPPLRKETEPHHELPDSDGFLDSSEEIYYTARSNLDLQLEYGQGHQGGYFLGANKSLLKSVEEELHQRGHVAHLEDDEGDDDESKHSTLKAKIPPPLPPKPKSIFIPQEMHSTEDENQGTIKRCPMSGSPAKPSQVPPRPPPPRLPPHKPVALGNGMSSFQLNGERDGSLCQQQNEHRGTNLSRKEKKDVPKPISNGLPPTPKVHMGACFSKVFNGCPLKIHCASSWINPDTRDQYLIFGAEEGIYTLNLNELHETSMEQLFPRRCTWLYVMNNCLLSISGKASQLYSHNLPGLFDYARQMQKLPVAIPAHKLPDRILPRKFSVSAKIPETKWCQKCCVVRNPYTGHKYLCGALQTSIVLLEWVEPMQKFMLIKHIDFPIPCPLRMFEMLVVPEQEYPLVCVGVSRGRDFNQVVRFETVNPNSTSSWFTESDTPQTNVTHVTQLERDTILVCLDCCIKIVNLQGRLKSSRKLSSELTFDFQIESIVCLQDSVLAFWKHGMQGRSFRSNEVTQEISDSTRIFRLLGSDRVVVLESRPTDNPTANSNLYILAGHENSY

[5] = biological target: Tyrosine-protein kinase receptor UFO (Homo sapiens) (UniProt P30530); experiment: Selectivity interaction (SelectScreen profiling (Invitrogen)) EUB0000607a AXL; details: at 2 µM
Chain of Tyrosine-protein kinase receptor UFO (Homo sapiens) (P30530 whole entry): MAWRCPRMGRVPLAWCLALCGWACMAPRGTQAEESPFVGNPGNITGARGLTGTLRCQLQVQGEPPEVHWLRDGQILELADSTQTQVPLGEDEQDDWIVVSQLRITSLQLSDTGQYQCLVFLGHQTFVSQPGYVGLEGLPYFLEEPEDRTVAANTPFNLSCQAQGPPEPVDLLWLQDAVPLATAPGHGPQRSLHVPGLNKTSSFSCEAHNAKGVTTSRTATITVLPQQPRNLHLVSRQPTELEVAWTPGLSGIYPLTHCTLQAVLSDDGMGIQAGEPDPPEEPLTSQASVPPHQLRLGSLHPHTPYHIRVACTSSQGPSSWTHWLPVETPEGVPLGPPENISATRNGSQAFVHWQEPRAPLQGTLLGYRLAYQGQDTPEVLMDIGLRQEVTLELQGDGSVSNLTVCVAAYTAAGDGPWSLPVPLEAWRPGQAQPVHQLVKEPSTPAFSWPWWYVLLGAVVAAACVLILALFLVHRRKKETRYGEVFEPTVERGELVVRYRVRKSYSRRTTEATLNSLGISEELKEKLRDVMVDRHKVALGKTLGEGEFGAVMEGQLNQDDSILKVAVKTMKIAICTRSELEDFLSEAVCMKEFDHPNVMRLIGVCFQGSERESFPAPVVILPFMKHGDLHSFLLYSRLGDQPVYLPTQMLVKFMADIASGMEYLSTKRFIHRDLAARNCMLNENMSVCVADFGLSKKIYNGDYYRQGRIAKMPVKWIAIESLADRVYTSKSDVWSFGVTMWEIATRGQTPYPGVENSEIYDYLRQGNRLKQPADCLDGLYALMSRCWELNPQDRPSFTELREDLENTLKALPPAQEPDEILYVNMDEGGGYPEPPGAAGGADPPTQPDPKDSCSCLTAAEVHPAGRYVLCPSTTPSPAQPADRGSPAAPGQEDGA

[6] = biological target: Wee1-like protein kinase (Homo sapiens) (UniProt P30291); experiment: Selectivity interaction (Kinase panel (KiNativ target engagement assay in Jurkat cells)) EUB0001635a WEE1; assay type: cell-based; details: at 1 µM
Chain of Wee1-like protein kinase (Homo sapiens) (P30291 whole entry, looked up): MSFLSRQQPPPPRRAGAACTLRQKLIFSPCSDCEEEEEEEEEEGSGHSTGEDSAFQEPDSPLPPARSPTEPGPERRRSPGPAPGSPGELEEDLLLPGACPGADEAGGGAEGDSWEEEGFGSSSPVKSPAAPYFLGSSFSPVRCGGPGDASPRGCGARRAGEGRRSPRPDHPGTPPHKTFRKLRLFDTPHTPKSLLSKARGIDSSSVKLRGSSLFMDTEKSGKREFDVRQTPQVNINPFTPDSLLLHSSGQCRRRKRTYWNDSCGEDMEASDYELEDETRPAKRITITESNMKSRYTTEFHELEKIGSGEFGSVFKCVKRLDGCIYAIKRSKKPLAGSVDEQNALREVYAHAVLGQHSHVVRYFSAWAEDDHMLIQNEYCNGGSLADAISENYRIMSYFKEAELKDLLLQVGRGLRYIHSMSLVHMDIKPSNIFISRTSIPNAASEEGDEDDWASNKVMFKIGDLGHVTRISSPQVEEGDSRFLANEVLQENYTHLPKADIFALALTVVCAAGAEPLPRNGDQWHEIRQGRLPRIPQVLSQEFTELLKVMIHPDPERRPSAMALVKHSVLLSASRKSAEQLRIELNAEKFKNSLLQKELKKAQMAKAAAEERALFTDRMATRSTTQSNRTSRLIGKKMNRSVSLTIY

[7] = biological target: T2, Serine/threonine-protein kinase 3 (Homo sapiens) (UniProt Q13188); experiment: Selectivity interaction (ActivX KiNativ screen (kinase selectivity in THP-1 cell lysates)) EUB0000639a STK3; assay type: subcellular; details: lysate, at 5 µM
T2 sequence (whole entry): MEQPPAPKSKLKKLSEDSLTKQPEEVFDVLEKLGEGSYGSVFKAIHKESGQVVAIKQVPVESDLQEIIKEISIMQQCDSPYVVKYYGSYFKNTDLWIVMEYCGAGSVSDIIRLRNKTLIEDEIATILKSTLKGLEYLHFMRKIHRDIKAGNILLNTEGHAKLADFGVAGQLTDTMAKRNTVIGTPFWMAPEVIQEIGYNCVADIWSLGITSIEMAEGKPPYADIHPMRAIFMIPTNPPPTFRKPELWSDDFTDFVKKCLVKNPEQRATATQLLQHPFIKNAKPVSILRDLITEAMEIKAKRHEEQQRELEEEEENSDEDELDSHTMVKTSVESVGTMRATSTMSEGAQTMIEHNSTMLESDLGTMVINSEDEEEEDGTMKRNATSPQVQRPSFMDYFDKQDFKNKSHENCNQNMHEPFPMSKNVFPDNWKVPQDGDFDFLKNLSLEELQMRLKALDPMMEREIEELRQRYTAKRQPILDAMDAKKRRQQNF

[8] = biological target: T3, Serine/threonine-protein kinase Nek9 (Homo sapiens) (UniProt Q8TD19); experiment: Selectivity interaction (Kinase panel (Z-LYTE Assay)) EUB0001632a NEK9; details: at 10 µM
T3 sequence (whole entry): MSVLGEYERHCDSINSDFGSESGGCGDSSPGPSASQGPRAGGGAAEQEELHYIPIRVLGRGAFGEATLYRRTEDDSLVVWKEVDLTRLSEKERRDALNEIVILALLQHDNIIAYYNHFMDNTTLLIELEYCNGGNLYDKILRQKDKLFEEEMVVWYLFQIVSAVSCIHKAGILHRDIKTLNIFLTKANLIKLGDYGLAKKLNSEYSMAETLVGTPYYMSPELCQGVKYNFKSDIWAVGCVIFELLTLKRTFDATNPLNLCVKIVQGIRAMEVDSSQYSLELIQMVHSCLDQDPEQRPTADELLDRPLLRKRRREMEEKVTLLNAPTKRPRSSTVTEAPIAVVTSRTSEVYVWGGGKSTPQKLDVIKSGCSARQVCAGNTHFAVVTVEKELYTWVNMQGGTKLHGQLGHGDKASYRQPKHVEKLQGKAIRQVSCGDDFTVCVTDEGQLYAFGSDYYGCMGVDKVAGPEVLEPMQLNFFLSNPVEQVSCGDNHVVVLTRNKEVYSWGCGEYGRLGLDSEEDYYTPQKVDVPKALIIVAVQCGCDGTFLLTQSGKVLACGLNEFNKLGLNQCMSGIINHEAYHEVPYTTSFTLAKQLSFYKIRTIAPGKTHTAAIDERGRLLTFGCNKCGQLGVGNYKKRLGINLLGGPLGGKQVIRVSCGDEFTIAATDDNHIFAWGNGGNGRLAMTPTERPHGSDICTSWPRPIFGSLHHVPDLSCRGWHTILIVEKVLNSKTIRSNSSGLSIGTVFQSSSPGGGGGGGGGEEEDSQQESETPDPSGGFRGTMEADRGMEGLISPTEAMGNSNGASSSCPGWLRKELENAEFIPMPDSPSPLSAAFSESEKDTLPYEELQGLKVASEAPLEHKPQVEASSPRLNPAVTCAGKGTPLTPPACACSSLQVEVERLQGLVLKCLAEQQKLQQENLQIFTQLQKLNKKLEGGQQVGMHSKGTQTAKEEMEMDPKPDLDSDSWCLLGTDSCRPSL

[9] = biological target: G protein-coupled receptor kinase 4 (Homo sapiens) (UniProt P32298); experiment: Selectivity interaction (KinomeScan (DiscoverX)) EUB0000695a GRK4; details: at 100 nM
Chain of G protein-coupled receptor kinase 4 (Homo sapiens) (P32298 whole entry, looked up): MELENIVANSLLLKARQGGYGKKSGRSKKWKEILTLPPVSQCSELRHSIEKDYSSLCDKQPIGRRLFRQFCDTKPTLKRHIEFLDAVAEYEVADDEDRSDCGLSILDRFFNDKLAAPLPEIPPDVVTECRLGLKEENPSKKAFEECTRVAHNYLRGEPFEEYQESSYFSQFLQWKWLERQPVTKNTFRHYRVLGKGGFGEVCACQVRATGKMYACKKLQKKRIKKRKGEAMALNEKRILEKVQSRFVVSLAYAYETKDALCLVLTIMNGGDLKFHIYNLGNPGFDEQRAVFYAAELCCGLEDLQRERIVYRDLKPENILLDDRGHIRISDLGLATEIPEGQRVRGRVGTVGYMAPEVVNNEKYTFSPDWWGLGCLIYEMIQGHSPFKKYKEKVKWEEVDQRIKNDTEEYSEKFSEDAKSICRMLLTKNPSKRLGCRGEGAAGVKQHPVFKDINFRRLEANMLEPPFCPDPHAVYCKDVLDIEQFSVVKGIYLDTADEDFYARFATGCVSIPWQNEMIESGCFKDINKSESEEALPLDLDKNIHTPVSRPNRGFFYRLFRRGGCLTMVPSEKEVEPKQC

Chain of Tyrosine-protein kinase JAK2 (O60674 whole entry): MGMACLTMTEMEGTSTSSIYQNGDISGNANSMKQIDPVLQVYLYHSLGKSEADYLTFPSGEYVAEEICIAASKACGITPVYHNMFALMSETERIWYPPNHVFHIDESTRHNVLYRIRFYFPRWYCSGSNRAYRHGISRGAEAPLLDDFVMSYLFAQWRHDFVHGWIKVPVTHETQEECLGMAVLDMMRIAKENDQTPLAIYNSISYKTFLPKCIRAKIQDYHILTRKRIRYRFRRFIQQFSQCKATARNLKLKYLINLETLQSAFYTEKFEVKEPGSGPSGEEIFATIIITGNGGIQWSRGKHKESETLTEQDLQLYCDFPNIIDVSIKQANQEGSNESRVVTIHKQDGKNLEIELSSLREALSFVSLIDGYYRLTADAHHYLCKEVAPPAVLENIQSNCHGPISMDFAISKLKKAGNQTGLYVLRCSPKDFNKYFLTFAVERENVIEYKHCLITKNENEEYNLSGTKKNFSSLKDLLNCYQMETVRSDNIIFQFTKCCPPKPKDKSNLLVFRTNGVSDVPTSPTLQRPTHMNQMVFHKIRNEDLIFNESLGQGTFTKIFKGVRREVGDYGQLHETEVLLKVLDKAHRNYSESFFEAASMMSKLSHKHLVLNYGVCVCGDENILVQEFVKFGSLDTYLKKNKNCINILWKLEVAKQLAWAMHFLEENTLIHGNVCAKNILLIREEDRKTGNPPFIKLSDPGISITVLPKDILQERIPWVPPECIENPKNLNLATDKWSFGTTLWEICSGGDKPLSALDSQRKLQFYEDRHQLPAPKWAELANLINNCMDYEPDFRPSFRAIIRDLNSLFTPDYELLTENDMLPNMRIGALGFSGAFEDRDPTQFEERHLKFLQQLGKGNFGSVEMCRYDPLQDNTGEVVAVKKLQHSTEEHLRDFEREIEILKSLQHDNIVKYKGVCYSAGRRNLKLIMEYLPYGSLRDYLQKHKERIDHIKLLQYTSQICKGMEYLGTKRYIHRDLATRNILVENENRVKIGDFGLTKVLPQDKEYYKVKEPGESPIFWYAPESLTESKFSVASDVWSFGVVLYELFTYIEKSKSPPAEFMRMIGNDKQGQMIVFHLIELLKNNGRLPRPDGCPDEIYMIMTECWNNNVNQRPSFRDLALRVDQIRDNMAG

CN(C)CCOc1ccc(-c2nc(-c3ccncc3)c(-c3ccc4c(c3)CC/C4=N\O)[nH]2)cc1
% of control [1]: 70%

Nc1cnc(N2CCc3cc(S(=O)(=O)Nc4c(F)cc(Cl)cc4F)cc(N4CCCC4=O)c32)nc1 [TP-020n]
% of control [2]: 100%
% of control [3]: 100%

CNC(=O)Nc1ccc(-c2nc(N3CC4CCC(C3)O4)c3cnn(C4CCC5(CC4)OCCO5)c3n2)cc1
% of control [4]: 94%
% of inhibition [5]: 2%

C=CC(=O)Nc1ccc(C(=O)Nc2[nH]nc3c2CN(C(=O)N[C@H](CN(C)C)c2ccccc2)C3(C)C)cc1
% of engagement [6]: 24%

CC[C@@H]1[C@H](F)C(=O)N[C@@H]1COc1nccc2cc(C(N)=O)c(OC)cc12 [ZIMLOVISERTIB]
% of inhibition [7]: -19.6%

Cn1cc(-n2cnc3c(NCc4nc5cc(Cl)c(Cl)cc5[nH]4)nc(N4CCOCC4)nc32)cn1
% of control [8]: -0.159%

Cc1cc(F)c(C(=O)Nc2cccc(-c3nncn3C(C)C)n2)cc1-n1cnc(C2CC2)c1
% of control [9]: 100%
